From patent publication US20190110476A1, “NOVEL ISOTHIAZOLAMIDES, PROCESSES FOR THEIR PREPARATION AND THEIR USE AS FUNGICIDES” (priority 2014, published 2019)
Marks after values point to notes of the source that are not given here.

Experiment: Measurement of LogP values by HPLC on reversed phase columns (EEC directive 79/831 Annex V.A8)
Assay type: physicochemical
How it was run: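 Following EEC directive 79/831 Annex V.A8, lipophilicity was derived from retention on reversed-phase HPLC columns. Separate values are given per diastereoisomer, and UV lambda-max (200–400 nm) was read at the peak signals.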

SMILES	LogP
COc1ccc(CNc2nsc(C(=O)NCCCn3ccnc3)c2Cl)cc1 [I-1244]	1.36[a]
COc1ccc(CNc2nsc(C(=O)NC3CCCCCC3)c2Cl)cc1 [I-1245]	4.27[a]
COc1ccc(CNc2nsc(C(=O)NCc3cc(C(F)(F)F)ccc3Cl)c2Cl)cc1 [I-1246]	4.37[a]
CCOc1ccccc1CNC(=O)c1snc(NCc2ccc(OC)cc2)c1Cl [I-1247]	4.08[a]
COc1ccc(CNc2nsc(C(=O)NC3Cc4ccccc4C3)c2Cl)cc1 [I-1248]	3.90[a]
COc1ccc(CNc2nsc(C(=O)NCc3ccc(Cl)c(C(F)(F)F)c3)c2Cl)cc1 [I-1249]	4.34[a]
COc1ccc(CNc2nsc(C(=O)NC(C)C3(Cl)CC3)c2Cl)cc1 (centres unmarked) [I-1250]	3.90[a]
COc1ccc(CNc2nsc(C(=O)NC(c3cncnc3)C(C)C)c2Cl)cc1 (centres unmarked) [I-1251]	2.73[a]
COc1ccc(CNc2nsc(C(=O)NC3CCC(C(C)(C)C)CC3)c2Cl)cc1 (centres unmarked) [I-1252]	5.51[a]
COc1ccc(CNc2nsc(C(=O)NC(C)c3cccnc3)c2Cl)cc1 (centres unmarked) [I-1253]	1.63[a]
CCC1(C)CC(NC(=O)c2snc(NCc3ccc(OC)cc3)c2Cl)CC(C)(C)C1 (centres unmarked) [I-1254]	5.72[a]
COc1ccc(CNc2nsc(C(=O)NCCc3ccccn3)c2Cl)cc1 [I-1255]	1.52[a]
COc1ccc(CNc2nsc(C(=O)NC(C)c3ccc(Cl)cc3Cl)c2Cl)cc1 (centres unmarked) [I-1256]	4.61[a]
COc1ccc(CNc2nsc(C(=O)NCc3cn(C(C)C)nc3C)c2Cl)cc1 [I-1257]	2.82[a]
COc1ccc(CNc2nsc(C(=O)NCc3cnn(CC(F)(F)F)c3)c2Cl)cc1 [I-1258]	2.84[a]
CCCCCn1cc(CNC(=O)c2snc(NCc3ccc(OC)cc3)c2Cl)c(C)n1 [I-1259]	3.57[a]
CCCCn1cc(CNC(=O)c2snc(NCc3ccc(OC)cc3)c2Cl)c(C)n1 [I-1260]	3.21[a]
COc1ccc(CNc2nsc(C(=O)NC(C)c3ccsc3)c2Cl)cc1 (centres unmarked) [I-1261]	3.61[a]
COc1ccc(CNc2nsc(C(=O)NCc3cnn(CC(C)C)c3C)c2Cl)cc1 [I-1262]	3.21[a]
COc1ccc(CNc2nsc(C(=O)NCCCn3ccnc3C)c2Cl)cc1 [I-1263]	1.44[a]
COc1ccc(CNc2nsc(C(=O)NCc3cc(F)cc(C(F)(F)F)c3)c2Cl)cc1 [I-1264]	4.15[a]
CCC(NC(=O)c1snc(NCc2ccc(OC)cc2)c1Cl)c1ccccc1 (centres unmarked) [I-1265]	4.03[a]
COc1ccc(CNc2nsc(C(=O)NCCC3=CCCCC3)c2Cl)cc1 [I-1266]	4.44[a]

SMILES	LogP
COc1ccc(CNc2nsc(C(=O)NC(C)(C)c3nc(C)cs3)c2Cl)cc1 [I-1267]	3.63[a]
COc1ccc(CNc2nsc(C(=O)NCc3cccc4ccccc34)c2Cl)cc1 [I-1268]	4.11[a]
COc1ccc(CNc2nsc(C(=O)NCCc3cccs3)c2Cl)cc1 [I-1269]	3.55[a]
COc1ccc(CNc2nsc(C(=O)NCc3noc(C)n3)c2Cl)cc1 [I-1270]	2.47[a]
COc1ccc(CNc2nsc(C(=O)NCc3ncccc3OC)c2Cl)cc1 [I-1271]	2.70[a]
COc1ccc(CNc2nsc(C(=O)NCc3ccc(F)c(C(F)(F)F)c3)c2Cl)cc1 [I-1272]	4.06[a]
COc1ccc(CNc2nsc(C(=O)NC(C)c3ccc(Br)cc3)c2Cl)cc1 (centres unmarked) [I-1273]	4.23[a]
COc1ccc(CNc2nsc(C(=O)NCc3cccc(C(C)C)n3)c2Cl)cc1 [I-1274]	2.94[a]
COc1ccc(CNc2nsc(C(=O)NC(C)c3cccc4ccccc34)c2Cl)cc1 (centres unmarked) [I-1275]	4.32[a]
COc1ccc(CNc2nsc(C(=O)NC(C)c3ccc(C(F)(F)F)cc3)c2Cl)cc1 (centres unmarked) [I-1276]	4.23[a]
COc1ccc(CN(C(=O)OC(C)(C)C)c2nsc(C(=O)N(C)OC)c2Cl)cc1 [I-1286]	3.75[a]
N#Cc1ccccc1CNC(=O)c1snc(N)c1Cl [I-1288]	1.43[a]
N#Cc1cccc(CNC(=O)c2snc(N)c2Cl)c1 [I-1289]	1.41[a]
Nc1nsc(C(=O)NCC2CCCCC2Cl)c1I (centres unmarked) [I-1293]	2.50[a]
Nc1nsc(C(=O)NCC2CCCCC2(F)F)c1Cl (centres unmarked) [I-1294]	2.07[a]
Nc1nsc(C(=O)NCC2CC=C(F)CC2)c1F (centres unmarked) [I-1296]	1.69[a]
Nc1nsc(C(=O)NCC2CCC(F)(F)CC2)c1F [I-1297]	1.66[a]
Nc1nsc(C(=O)NCC2CCCCC2F)c1Cl (centres unmarked) [I-1306]	1.97[a]
CCOC(=O)c1cccc(CNC(=O)c2snc(N)c2Cl)c1 [I-1307]	2.03[a]
COc1ccc(CNc2nsc(C(=O)NC3CCc4ccc(C(C)(C)C)cc4C3)c2Cl)cc1 (centres unmarked) [I-1308]	5.41[a]
COc1ccc(CNc2nsc(C(=O)NCc3cnc(Cl)cn3)c2Cl)cc1 [I-1309]	2.98[a]
COc1ccc(CNc2nsc(C(=O)NC3CCCc4ccncc43)c2Cl)cc1 (centres unmarked) [I-1310]	1.67[a]
COc1ccc(CNc2nsc(C(=O)NC3CCCc4cc(C(C)(C)C)ccc43)c2Cl)cc1 (centres unmarked) [I-1311]	5.46[a]

SMILES	LogP
CCn1ncc(CNC(=O)c2snc(NCc3ccc(OC)cc3)c2Cl)c1C(F)F [I-1312]	3.09[a]
COc1ccc(CNc2nsc(C(=O)NCc3cc(C(F)(F)F)cc(C(F)(F)F)c3)c2Cl)cc1 [I-1313]	4.46[a]
COc1ccc(CNc2nsc(C(=O)NCc3ccncc3C)c2Cl)cc1 [I-1314]	1.52[a]
COc1ccc(CNc2nsc(C(=O)NCc3cnn(CC(F)F)c3)c2Cl)cc1 [I-1315]	2.58[a]
COc1ccc(CNc2nsc(C(=O)NCc3ccnc(OC)n3)c2Cl)cc1 [I-1316]	2.56[a]
COc1ccc(CNc2nsc(C(=O)NC(C)c3nccs3)c2Cl)cc1 (centres unmarked) [I-1317]	2.82[a]
COc1ccc(CNc2nsc(C(=O)NCc3ccc(OC)cn3)c2Cl)cc1 [I-1318]	2.45[a]
COc1ccc(CNc2nsc(C(=O)NCc3cccc(OC)n3)c2Cl)cc1 [I-1319]	3.41[a]
COc1ccc(CNc2nsc(C(=O)NCc3ccc(C)n3C)c2Cl)cc1 [I-1320]	3.39[a]
COc1ccc(CNc2nsc(C(=O)NCc3ccc(OC)c(C(F)(F)F)c3)c2Cl)cc1 [I-1321]	3.85[a]
COc1ccc(CNc2nsc(C(=O)NC3(c4ccccc4Br)CC3)c2Cl)cc1 [I-1322]	4.40[a]
COc1ccc(CNc2nsc(C(=O)NCc3cncs3)c2Cl)cc1 [I-1323]	2.39[a]
COc1ccc(CNc2nsc(C(=O)NC(Cn3ccnc3)C(C)(C)C)c2Cl)cc1 (centres unmarked) [I-1324]	1.82[a]
COc1ccc(CNc2nsc(C(=O)NC3CC(C)(C)Cc4oc(C)cc43)c2Cl)cc1 (centres unmarked) [I-1325]	4.74[a]
COc1ccc(CNc2nsc(C(=O)NC(C#N)c3ccc(F)c(F)c3)c2Cl)cc1 (centres unmarked) [I-1326]	3.61[a]
COc1ccc(CNc2nsc(C(=O)NC3(c4ccccc4Cl)CC3)c2Cl)cc1 [I-1327]	4.24[a]
COc1ccc(CNc2nsc(C(=O)NCc3cc(OC)cc(OC)c3)c2Cl)cc1 [I-1328]	3.41[a]
COc1ccc(CNc2nsc(C(=O)NC(C)(C)c3ccon3)c2Cl)cc1 [I-1329]	3.04[a]
COc1ccc(CNc2nsc(C(=O)NCc3cnccc3OC)c2Cl)cc1 [I-1330]	1.49[a]
COc1ccc(CNc2nsc(C(=O)NC3CCc4cc(C(C)(C)C)ccc43)c2Cl)cc1 (centres unmarked) [I-1331]	5.22[a]
COc1ccc(CNc2nsc(C(=O)NC(C)c3nc(C(C)C)no3)c2Cl)cc1 (centres unmarked) [I-1332]	3.46[a]
CCc1c(CNC(=O)c2snc(NCc3ccc(OC)cc3)c2Cl)cnn1CC [I-1333]	2.82[a]
COc1ccc(CNc2nsc(C(=O)NC3CCCCc4ccccc43)c2Cl)cc1 (centres unmarked) [I-1334]	4.40[a]

SMILES	LogP
COc1ccc(CNc2nsc(C(=O)NC(C#N)c3cccc(Cl)c3Cl)c2Cl)cc1 (centres unmarked) [I-1335]	4.05[a]
COc1ccc(CNc2nsc(C(=O)NC3CCOCC3C)c2Cl)cc1 (centres unmarked) [I-1336]	2.80[a]
COc1ccc(CNc2nsc(C(=O)NC(C)C3=NOCC3)c2Cl)cc1 (centres unmarked) [I-1337]	2.56[a]
COc1ccc(CNc2nsc(C(=O)NC(C)c3ccno3)c2Cl)cc1 (centres unmarked) [I-1338]	2.73[a]
COc1ccc(CNc2nsc(C(=O)NCc3cn(C4CCCC4)nc3C)c2Cl)cc1 [I-1339]	3.23[a]
COc1ccc(CNc2nsc(C(=O)NCc3csc4ccc(Cl)cc34)c2Cl)cc1 [I-1340]	4.37[a]
COc1ccc(CNc2nsc(C(=O)NCc3cnn(C)c3C)c2Cl)cc1 [I-1341]	2.33[a]
COc1ccc(CNc2nsc(C(=O)NCc3cncc(OC)c3)c2Cl)cc1 [I-1342]	1.89[a]
COc1ccc(CNc2nsc(C(=O)NC(C)c3ccc(Cl)nc3)c2Cl)cc1 (centres unmarked) [I-1343]	3.17[a]
COc1ccc(CNc2nsc(C(=O)NCc3cc(OC)c(OC)c(OC)c3)c2Cl)cc1 [I-1344]	3.08[a]
COc1ccc(CNc2nsc(C(=O)NCc3cccc(C)n3)c2Cl)cc1 [I-1345]	1.78[a]
COc1ccc(CNc2nsc(C(=O)NC3CCC4CCCC43)c2Cl)cc1 (centres unmarked) [I-1346]	4.35[a]
COc1ccc(CNc2nsc(C(=O)NC3CCC(C4CCCCC4)CC3)c2Cl)cc1 (centres unmarked) [I-1347]	6.25[a]
COc1ccc(CNc2nsc(C(=O)NC(C)c3ccc(OC)c(OC)c3)c2Cl)cc1 (centres unmarked) [I-1348]	3.25[a]
CCn1cc(C(C)NC(=O)c2snc(NCc3ccc(OC)cc3)c2Cl)c(C)n1 (centres unmarked) [I-1349]	2.73[a]
C=CCONC(=O)c1snc(NCc2ccc(OC)cc2)c1Cl [I-1353]	2.62[a]
Nc1nsc(C(=O)NCC2(Br)CCCCC2)c1F [I-1358]	2.56[a]
C#Cc1c(N)nsc1C(=O)NCC1CCCCC1F (centres unmarked) [I-1359]	2.05[a]
Cc1nonc1NC(=O)c1snc(N)c1Cl [I-1361]	1.27[a]
Cc1nc(CNC(=O)c2snc(N)c2Cl)cs1 [I-1362]	1.14[a]
CCC(NC(=O)c1cc(N)ns1)C1CCCCC1 (centres unmarked) [I-1407]	2.30[b]
CC(C)(C)c1ccc2c(c1)CC(NC(=O)c1snc(N)c1Cl)CC2 (centres unmarked) [I-1534]	3.94[a]
CCC1(C)CC(NC(=O)c2snc(N)c2Cl)CC(C)(C)C1 (centres unmarked) [I-1535]	4.01[a]
